In patent US7709488B2, “Imidazopyridine-derivatives as inducible no-synthase inhibitors” (Altana Pharma AG, priority 2003, dated 2010):

Assays:
[1] = biological target: human inducible NO-synthase (Homo sapiens, UniProt P35228); test: Measurement of inducible NO-synthase activity ([3H]arginine conversion, crude cytosolic fraction); assay type: biochemical; settings: 0.1 μM arginine, 45 to 60 min at 37° C., pH 7.2; for IC50: read-out: Inhibition of iNOS activity [measured as −logIC50 (mol/l)] (converted)
Method: Measurement of Inducible NO-Synthase Activity
The assay is performed in 96-well microtiter F-plates (Greiner, Frickenhausen, FRG) in a total volume of 100 μl in the presence of 100 nM calmodulin, 226 μM CaCl2, 477 μM MgCl2, 5 μM flavin-adenine-dinucleotide (FAD), 5 μM flavin mononucleotide (FMN), 0.1 mM NADPH, 7 mM glutathione, 10 μM BH4 and 100 mM HEPES pH 7.2. Arginine concentrations are 0.1 μM for enzyme inhibition experiments. 150000 dpm of [^3H]arginine are added to the assay mixture. Enzyme reaction is started by the addition of 4 μg of a crude cytosolic fraction containing human inducible NO-synthase and the reaction mixture is incubated for 45 to 60 min at 37° C. Enzyme reaction is stopped by adding 10 μl of 2M MES-buffer pH 5.0. 50 μl of the incubation mixture are transferred into a MADP N65 filtration microtiter plate (Millipore, Eschbom, FRG) containing already 50 μl of AG-50W-X8 cation exchange resin (Biorad, München, FRG). The resin in the Na loaded form is pre-equilibrated in water and 70 μl (corresponding to 50 μl dry beads) are pipetted under heavy stirring with a 8 channel pipette into the filtration plate. After pipetting 50 μl of the enzyme reaction mixture onto the filtration plates, the plates are placed on a filtration manifold (Porvair, Shepperton, UK) and the flow through is collected in Pico scintillation plates (Packard, Meriden, Conn.). The resin in the filtration plates is washed with 75 μl of water (1×50 μl and 1×25 μl) which is also collected in the same plate as the sample. The total flow through of 125 μl is mixed with 175 μl of Microscint-40 scintillation cocktail (Packard) and the scintillation plate is sealed with TopSeal P-foil (Packard). Scintillation plates are counted in a scintillation counter.
For the measurement of inducible NO-synthase-inhibiting potencies of compounds increasing concentrations of inhibitors were included into the incubation mixture. IC50-values were calculated from the percent inhibition at given concentrations by nonlinear least square fitting.
The inhibitory values determined for the compounds according to the invention follow from the following table A, in which the compound numbers correspond to the example numbers.

Row | SMILES | IC50 [1] [nM] | melting point [°C] | Inhibition of iNOS activity [measured as −logIC50] [1]
1 | COc1ccnc(CCc2nc3cc(-c4ccc(S(=O)(=O)N(C)C)c(C(F)(F)F)c4)cnc3[nH]2)c1 [Compound 22, 4-{2-[2-(4-Methoxypyridin-2-yl)ethyl]-3H-imidazo[4,5-b]pyridin-6-yl}-N,N-dimethyl-2-trifluormethyl-benzenesulfonamide] | – | – | 7
2 | COc1ccnc(CCc2nc3cc(-c4ccc(S(=O)(=O)N5CCC(C(=O)c6ccccc6)CC5)cc4)cnc3[nH]2)c1 [Compound 13, 6-[4-(4-Benzoyl-piperidin-1-yl-sulfonyl)-phenyl]-2-[2-(4-methoxy-pyridin-2-yl)ethyl]-3H-imidazo[4,5-b]pyridine] | 33.1 | 174 to 175 | –
3 | COc1ccnc(CCc2nc3cc(-c4ccc(S(=O)(=O)N(C)c5ccc(Cl)cc5)cc4)cnc3[nH]2)c1 [Compound 28, N-(4-Chlorphenyl)-N-methyl-4-{2-[2-(4-methoxypyridin-2-yl)ethyl]-3H-imidazo-[4,5-b]pyridin-6-yl}benzenesulfonamid] | – | – | 7.41
4 | COc1ccnc(CCc2nc3cc(-c4ccc(S(=O)(=O)N5CCCN(C)CC5)cc4)cnc3[nH]2)c1 [Compound 11, 2-[2-(4-Methoxypyridin-2-yl)ethyl]-6-[4-(4-methyl-[1,4]diazepan-1-yl-sulfonyl)-phenyl]-3H-imidazo-[4,5-b]pyridine] | 12.9 | 160 to 162 | –
5 | COc1ccnc(CCc2nc3cc(-c4ccc(S(=O)(=O)N5CCN(c6cc(Cl)cc(Cl)c6)CC5)cc4)cnc3[nH]2)c1 [Compound 7, 6-{4-[4-(3,5-Dichlorphenyl)-piperazin-1-yl-sulfonyl]-phenyl}-2-[2-(4-methoxy-pyridin-2-yl)ethyl]-3H-imidazo[4,5-b]pyridine] | – | – | 6.51
6 | COc1ccnc(CCc2nc3cc(-c4ccc(S(=O)(=O)N5CCC6(CC5)OCCO6)cc4)cnc3[nH]2)c1 [Compound 14, 6-[4-(1,4-dioxa-8-azaspiro[4.5]decan-8-yl-sulfonyl)-phenyl]-2-[2-(4-methoxy-pyridin-2-yl)ethyl]-3H-imidazo[4,5-b]pyridine] | 26.3 | 121 to 122 | –
7 | COc1ccnc(CCc2nc3cc(-c4ccc(S(=O)(=O)N5CCNC(=O)CC5)cc4)cnc3[nH]2)c1 [Compound 16, 6-[4-(1,4-Diazepan-5-one-1-yl-sulfonyl)-phenyl]-2-[2-(4-methoxy-pyridin-2-yl)ethyl]-3H-imidazo[4,5-b]pyridine] | 24 | 230 to 232 | –
8 | COc1ccnc(CCc2nc3cc(-c4ccc(S(=O)(=O)N(C)C)c(OC(F)(F)F)c4)cnc3[nH]2)c1 [Compound 21, 4-{2-[2-(4-Methoxypyridin-2-yl)ethyl]-3H-imidazo[4,5-b]pyridin-6-yl}-N,N-dimethyl-2-trifluormethoxy-benzenesulfonamide] | – | – | 6.95
9 | COc1ccnc(CCc2nc3cc(-c4ccc(S(=O)(=O)N5CCc6cc(OC)c(OC)cc6C5)cc4)cnc3[nH]2)c1 [Compound 15, 6-[4-(6,7-Dimethoxy-1,2,3,4-tetrahydroisoquinolin-2-yl-sulfonyl)-phenyl]-2-[2-(4-methoxy-pyridin-2-yl)ethyl]-3H-imidazo[4,5-b]pyridine] | 34.7 | 207 to 208 | –
10 | COCCN1CCN(S(=O)(=O)c2ccc(-c3cnc4[nH]c(CCc5cc(OC)ccn5)nc4c3)cc2)CC1 [Compound 8, 6-{4-[4-(2-Methoxy-ethyl)-piperazin-1-yl-sulfonyl]-phenyl}-2-[2-(4-methoxy-pyridin-2-yl)ethyl]-3H-imidazo[4,5-b]pyridine] | 42.7 | 206 to 208 | –

Further lines, with some results ahead:

Row | IC50 [1] [nM] | melting point [°C] | SMILES | Inhibition of iNOS activity [measured as −logIC50] [1]
11 | 91.2 | 127 to 128 | COc1ccnc(CCc2nc3cc(-c4ccc(S(=O)(=O)N(CCO)CCO)cc4)cnc3[nH]2)c1 [Compound 18, N,N-Bis-(2-hydroxyethyl)-4-{2-[2-(4-methoxypyridin-2-yl)ethyl]-3H-imidazo-[4,5-b]pyridin-6-yl}benzenesulfonamid] | –
12 | 14.5 | 218 to 220 | COc1ccnc(CCc2nc3cc(-c4ccc(S(=O)(=O)N5CCN(c6ccccc6)CC5)cc4)cnc3[nH]2)c1 [Compound 3, 2-[2-(4-Methoxypyridin-2-yl)ethyl]-6-[4-(4-phenylpiperazin-1-yl-sulfonyl)-phenyl]-3H-imidazo-[4,5-b]pyridine] | –
13 | 22.9 | 210 to 212 | COc1ccnc(CCc2nc3cc(-c4ccc(S(=O)(=O)N5CCOCC5)cc4)cnc3[nH]2)c1 [Compound 10, 2-[2-(4-Methoxypyridin-2-yl)ethyl]-6-[4-(morpholin-4-yl-sulfonyl)-phenyl]-3H-imidazo-[4,5-b]pyridine] | –
14 | 19.5 | 193 to 195 | COc1ccnc(CCc2nc3cc(-c4ccc(S(=O)(=O)N5CCN(C)CC5)cc4)cnc3[nH]2)c1 [Compound 1] | –
15 | 26.3 | 150 to 154 | COc1ccnc(CCc2nc3cc(-c4ccc(S(=O)(=O)N5CCN(c6ccc(C)cc6)CC5)cc4)cnc3[nH]2)c1 [Compound 5, 2-[2-(4-Methoxypyridin-2-yl)ethyl]-6-[4-(4-p-tolyl-piperazin-1-yl-sulfonyl)-phenyl]-3H-imidazo-[4,5-b]pyridine] | –
16 | 18.6 | 211 to 212 | COc1ccnc(CCc2nc3cc(-c4ccc(S(=O)(=O)NCc5ccccc5)cc4)cnc3[nH]2)c1 [Compound 19, N-Benzyl-4-{2-[2-(4-methoxypyridin-2-yl)ethyl]-3H-imidazo-[4,5-b]pyridin-6-yl}benzenesulfonamid] | –
17 | 30.2 | 217 to 219 | COc1ccnc(CCc2nc3cc(-c4ccc(S(=O)(=O)N5CCN(c6ccc(C#N)cc6)CC5)cc4)cnc3[nH]2)c1 [Compound 4, 2-[2-(4-Methoxypyridin-2-yl)ethyl]-6-{4-[4-(4-cyanophenyl)-piperazin-1-yl-sulfonyl]-phenyl}-3H-imidazo-[4,5-b]pyridine] | –
18 | 43.7 | 219 to 220 | COc1ccnc(CCc2nc3cc(-c4ccc(S(=O)(=O)Nc5ccc(C)cc5)cc4)cnc3[nH]2)c1 [Compound 25, 4-{2-[2-(4-Methoxypyridin-2-yl)ethyl]-3H-imidazo[4,5-b]pyridin-6-yl}-N-p-tolyl-benzenesulfonamide] | –
19 | 45.7 | 221 to 222 | COc1ccnc(CCc2nc3cc(-c4ccc(S(=O)(=O)Nc5ccc(N(C)C)cc5)cc4)cnc3[nH]2)c1 [Compound 27, N-(4-Dimethylamino-phenyl)-4-{2-[2-(4-methoxypyridin-2-yl)ethyl]-3H-imidazo-[4,5-b]pyridin-6-yl}benzenesulfonamid] | –
20 | 34.7 | 215 to 216 | COc1ccnc(CCc2nc3cc(-c4ccc(S(=O)(=O)Nc5ccccc5OC)cc4)cnc3[nH]2)c1 [Compound 26, 4-{2-[2-(4-Methoxypyridin-2-yl)ethyl]-3H-imidazo[4,5-b]pyridin-6-yl}-N-(2-methoxyphenyl)-benzenesulfonamide] | –
21 | 126 | 208 to 209 | COc1ccnc(CCc2nc3cc(-c4ccc(S(=O)(=O)N5CCN(c6ccc(C)cc6C)CC5)cc4)cnc3[nH]2)c1 [Compound 6, 6-{4-[4-(2,4-Dimethylphenyl)-piperazin-1-yl-sulfonyl]-phenyl}-2-[2-(4-methoxy-pyridin-2-yl)ethyl]-3H-imidazo[4,5-b]pyridine] | –
